Measurements as given in patent US20100267733A1, “Synergistic Modulation of Microglial Activation by Nicotine and THC” (UNIVERSITY OF SOUTH FLORIDA, priority 2007, published 2010).
Where two headings read alike, the source gives them in different places.

What was measured:
[1] = test system: N9 cells; test: Cannabinoid agonist effects on microglial (N9) activation: TNF-α and NO release; type: cell-based, murine; conditions: JWH-015 5 μM
Procedure: (§1) FIG. 3 is a block graph showing cannabinoid agonist effects on microglial (N9) activation. Cultured microglial cells were incubated with 100 ng/mL LPS (LPS), a combination of IFN-γ (100 U/mL) and CD-40L (2 μg/mL), or a combination of Aβ1-42 (1 μM) and CD-40L (2 μg/mL) and co-treated with JWH-015 (5 μM). Anti-CB2 siRNA was added to cells, abolishing the ability of JWH-015 to reduce LPS-induced cytokine release (n=3, **p<0.05). ELISA analysis of microglial cell release of (A) TNF-α and (B) NO was measured and mean levels per mg of total protein shown.
Cannabinoid receptors are expressed on microglia and regulate microglial function. As such, cannabinoid regulation of CD40 activation of microglial was investigated. N9 cells, transfected for 18 hr with specific murine CB2 targeting siRNA (100 nM), were treated for 4 hr with lipopolysaccharid (LPS), a positive control of microglia activation.

[2] = test system: mouse primary microglial cells; test: TNF-α secretion by primary microglial cells stimulated with IFN-γ/CD40L or Aβ1-42/CD40L (ELISA); type: cell-based; conditions: 24 hr, presence of JWH-015
Procedure: as §1
To examine the functional consequences of CB2 agonist treatment on CD40 expression, mouse primary microglial cells were stimulated with either IFN-γ/CD40L protein (Polazzi, E., A. Contestabile, Reciprocal interactions between microglia and neurons: from survival to neuropathology. Rev. Neurosci., 2002. 13(3): 221-242; Facchinetti, F., et al., Cannabinoids ablate release of TNFalpha in rat microglial cells stimulated with lypopolysaccharide. Glia, 2003. 41(2): 161-168; Walter, L., et al., Nonpsychotropic cannabinoid receptors regulate microglial cell migration. J. Neurosci. 2003. 23(4):1398-405) or Aβ1-42/CD40L protein in the presence or absence of JWH-015 for 24 hr. […] After 3 hr, the amount of phagocytosed Aβ1-42 peptide was determined by quantitative immunoblotting experiments, seen in FIG. 4. […]

[3] = test system: mouse primary microglial cells; test: Microglial phagocytosis of Aβ1-42 / Cy3-Aβ1-42 with CD40L (phagocytosis assay, quantitative immunoblotting); type: cell-based
Procedure: FIG. 4 is a graph showing CB2 stimulation modulates microglial phagocytic function. Mouse primary microglial cells were seeded at 5×10^5 cells/well and treated with 3 μM Cy3™-Aβ1-42 with CD-40L protein (2.5 μg/mL), JWH-015 (5 μM) or both JWH-015 and CD-40L. Aβ mean band densities are represented as ratios to β-actin+/−SD (n=3 for each condition).
To examine the functional consequences of CB2 agonist treatment on CD40 expression, mouse primary microglial cells were stimulated with either IFN-γ/CD40L protein (Polazzi, E., A. Contestabile, Reciprocal interactions between microglia and neurons: from survival to neuropathology. Rev. Neurosci., 2002. 13(3): 221-242; Facchinetti, F., et al., Cannabinoids ablate release of TNFalpha in rat microglial cells stimulated with lypopolysaccharide. Glia, 2003. 41(2): 161-168; Walter, L., et al., Nonpsychotropic cannabinoid receptors regulate microglial cell migration. J. Neurosci. 2003. 23(4):1398-405) or Aβ1-42/CD40L protein in the presence or absence of JWH-015 for 24 hr. […] The canonical microglial function in the CNS is thought to be phagocytosis, given that IFN-γ and CD40 signaling are maturation agents that oppose this phagocytic function. Murine primary microglial cultures were exposed to 3 μM of Aβ1-42 (for immunoblotting) or Cy3™-Aβ1-42 (for phagocytosis assay) in the presence or absence of CD40L protein or CD40L protein/JWH-015. After 3 hr, the amount of phagocytosed Aβ1-42 peptide was determined by quantitative immunoblotting experiments, seen in FIG. 4. […] CD40 ligation decreased microglial phagocytosis compared to controls, while CB2 agonist treatment alone increased phagocytosis compared to control. The presence of JWH-015 rescued microglial phagocytosis of Cy3-Aβ1-42 following CD40L treatment.

[4] = test system: primary cultured microglial cells; type: cell-based, murine
Procedure: Primary cultured microglial cells (1×10^5 cells/well in 24-well tissue-culture plates) were treated with FITC-tagged Aβ1-42 (300 nM, pre-aggregated for 24 h at 37° C. in complete medium for 60 mm in the absence (control) or presence of nicotine ([…]). In addition, in parallel 24-well tissue-culture plates, microglial cells were incubated at […] with the same treatment above. Cell supernatants and lysates were analyzed for (A) extracellular and (B) cell associated FITC-Aβ using a fluorometer.
Concentration-response and time-course functions for microglial phagocytosis (cellular uptake) of Aβ1-42 peptide were then characterized. […] To fully characterize these effects, primary microglial cells cultured in 24-well tissue-culture plates (1×10^5/well) were treated for 0, 15, 30, 60, 120, and 180 mm with “aged” FITC tagged Aβ1-42 peptide at 300 nM in the presence or absence of nicotine (0.1-10 μM), THC (0.01-10 μM), and their combination. The microglia were then administered nicotine (0.1-10 μM), THC (0.01-10 μM) and a combination. In addition, cannabinoid antagonists, AM 251 (CB1) and AM 281 […] (0.01-10 μM), cannabinoid agonists, ACEA (CB1) and JHW 015 (CB2) (0.01-10 μM), and nicotinic receptor antagonists, mecamylamine (α4β2) and α-bungorotoxin (α 7) (0.01-10 μM) were used in challenge experiments to determine receptor specificity. For fluorescence analysis, the cells were then washed 5 times with ice-cold PBS to remove the extracellular Aβ, and fixed in 4% paraformaldehyde. The cells were mounted and viewed under an Olympus IX71/IX51 fluorscence microscope equipped with a digital camera system. Image Pro software was used to quantify fluorescence signals, using a minimum of 5 random fields. For fluorometric analysis, microglial cells were treated in parallel, rinsing the cells 3 times with medium and the cells lysed. Extracellular and cell associated FITC tagged Aβ was quantified using an MFX 96-well microplate fluorometer (Molecular Devices, MDS, Inc., Sunnyvale, Calif.) with an emission wavelength of 538 nm and an excitation wavelength of 485 nm. A standard curve from 0 nM to 500 nM of FITC-tagged Aβ was run for each plate. The total cellular protein of all groups was quantified using the Bio-Rad protein assay. In addition, in parallel 24-well tissue-culture plates, microglial cells was incubated at 4° C. with FITC-conjugated Aβ with or without various combinations of CD40L as controls for non-specifically incorporated Aβ. Microglial cells was then rinsed 3 times in Aβ-free complete medium, and the media was exchanged with fresh Aβ-free complete medium for 10 min both to allow for removal of non-incorporated Aβ and to promote concentration of the Aβ into phagosomes. The mean fluorescence values for each sample at 37° C. and 4° C. at the indicated time points were determined by fluorometic analysis. Relative fold change values were calculated as: (mean fluorescence value for each sample at 37° C./mean fluorescence value for each sample at 4° C.). In this manner, both extracellular and cell associated FITC-labeled Aβ were quantified.
For phagocytosis experiments, an important concern is the possibility of extracellular association of Aβ with microglial cell membrane. To address this issue, microglial cells was rinsed in Aβ-free complete medium, and media was exchanged with fresh Aβ-medium for 10 mm both to allow for removal of non-specifically incorporated Aβ and to promote concentration of the Aβ into phagosomes. Microglial cells were further cultured in parallel 24-well plates incubated at 4° C. with FITC-tagged Aβ at the same time points in the presence or absence of the appropriate treatment as control for non-specifically incorporated Aβ.

[5] = test system: microglial cells; test: LPS-induced TNF-α release in cultured microglial cells (ELISA); type: cell-based, murine
Procedure: Cultured microglial cells were plated in 24-well tissue-culture plates (Costar, Cambridge, Mass.), using minimum essential media supplemented with 5% fetal bovine serum, at […] cells per well. […] After pretreatment the cells were stimulated with LPS (100 ng/mL) for 4 hrs. Cell-free supernatants were collected and stored at −70° C. until analysis. The TNF-α level in the supernatants were examined using ELISA kits (R&D Systems) in strict accordance with the manufacturers' protocols. Cell lysates were also prepared and the Bio-Rad protein assay (Hercules, Calif.) was performed to measure total cellular protein. Results are shown as mean pg of TNF-α per mg of total cellular protein (+1-SEM).
Murine primary culture microglial cells were isolated from newborn mouse cerebral cortices under sterile conditions and kept at 4° C. prior to mechanical dissociation. Cells were plated in 75 cm^2 flasks in RPMI medium supplemented with 5% fetal calf serum, 2 mM glutamine, 100 units/mL penicillin, 0.1 μg/mL streptomycin, and 0.05 mM 2-mercaptoethanol and kept for 14 days so only glial cells remain. The microglial cells were isolated by shaking the flasks at 200 rpm. More than 98% of the glial cells remaining stain positive for membrane attack complex-1 (CD-11b, Roche Diagnostics Corp., Indianapolis, Ind.). Additionally, between 85% and 95% of microglial cells usually stain positive for CD45 by fluorescence activated cell sorter (FACS) analysis.
Cell cultured media was collected for measurement of cytokines by commercial cytokine ELISA kits, as described previously. In parallel, cell lysates were prepared for measurement of total cellular protein. Data was represented as ng/mg total cellular protein for each cytokine production.
Cell cultures were treated with nicotinic/THC treatment, as described above. […] Each cytokine was represented as pg of cytokine/mg of total cellular protein. Data was analyzed using ANOVA with post hoc comparison using Bonferroni's or Dunnett's T3 methods as determined by Levene's test for equality of the variances.

[6] = test system: microglial cells
[7] = test system: Tg2576 transgenic mice; conditions: mouse, in vivo; cited from earlier work

Compound: CCCn1c(C)c(C(=O)c2cccc3ccccc23)c2ccccc21 [JWH-015]
- Aβ/CD-40L-induced NO production ([1]; Aβ1-42 1 μM, CD-40L 2 μg/mL, FIG. 3(B)): significantly reduced
- IFN-γ/CD-40L-induced NO production ([1]; IFN-γ 100 U/mL, CD-40L 2 μg/mL, FIG. 3(B)): significantly reduced
- LPS-induced TNF-α release ([1]; N9 cells, LPS 100 ng/mL 4 hr, FIG. 3(A)): reductions
- secretion of TNF-α induced by Aβ1-42/CD40L [2]: significantly reduced
- secretion of TNF-α induced by IFN-γ/CD40L [2]: significantly reduced
- microglial phagocytosis compared to control ([3]; CB2 agonist treatment alone, 3 μM Aβ1-42, 3 hr): increased
- microglial phagocytosis of Cy3-Aβ1-42 following CD40L treatment ([3]; JWH-015 5 μM with CD40L protein, 3 hr): rescued
- CD40L-mediated impairment of microglial phagocytosis of Aβ1-42 (band density ratio of Aβ to β-actin) ([3]; Western immunoblotting, parallel experiment): significant attenuation
- Aβ levels (Aβ band densities compared to β-actin) ([3]; quantitative immunoblotting, FIG. 4): significantly reduced

Compound: CCCCCc1cc(O)c2c(c1)OC(C)(C)[C@@H]1CCC(C)=C[C@@H]21 [THC, Δ^9-tetrahydrocannabinol]
- cell-associated FITC-Aβ1-42 ([4]; THC 5 μM): increasing
- extracellular FITC-Aβ1-42 remaining in the supernatant ([4]; THC 5 μM): markedly decreased
- receptor mediating the effect on microglial phagocytosis of Aβ ([4]; challenge experiments with receptor antagonists/agonists): cannabinoid CB2 receptors

Compound: CNC1(C)C2CCC(C2)C1(C)C (centres unmarked) [mecamylamine]
- prevention of the ACh and nicotine inhibition of LPS-induced TNF-α release [5]: prevented

Compound: CN1CCCC1c1cccnc1 (centres unmarked) [nicotine]
- LPS-induced TNF-α release [5]: inhibited
- cell-associated FITC-Aβ1-42 [4]: increasing
- extracellular FITC-Aβ1-42 remaining in the supernatant [4]: markedly decreased
- microglial phagocytosis of Aβ1-42 peptide [4]: enhanced
- receptor mediating the effect on microglial phagocytosis of Aβ [4]: α7 nicotinic receptors
- microglial-released IL-1β [6]: effectively suppress
- microglial-released IL-6 [6]: effectively suppress
- microglial-released TNF-α [6]: effectively suppress
- reduction in insoluble Aβ1-40 and Aβ1-42 peptides [7]: ~80%

Compound: α-bungarotoxin
- prevention of the ACh and nicotine inhibition of LPS-induced TNF-α release [5]: prevented
